How the values were obtained:
[1] = system: panel of 3 ATRT cell lines; experiment: LP-184 sensitivity in a panel of 3 ATRT cell lines; format: cell-based; conditions: 2 of the 3 ATRT cell lines (high sensitivity)
Text: (§1) Patients receive several types of treatment, which may include surgery, chemotherapy and radiation, but the overall 2-year survival rate remains less than 15% for children aged younger than 3 years at diagnosis. ATRTs commonly have mutations in or loss of the gene SMARCB1. Increased LP-184 sensitivity correlates with decreased expression of SMARCB1. The panel of 3 ATRT cell lines, 2 of the 3 lines show evidence of high sensitivity to HydroxyUreaMethyl Acylfulvene (having a negative optical activity) or LP-184 with IC50s for those 2 being lower than 200 nM.

CHLA06 xenograft tumors = experiment: in vivo xenograft tumor study, animal model of atypical teratoid rhabdoid tumor (ATRT); set-up: species or system NOD SCID mice
Procedure: LP-184 or HydroxyUreaMethyl Acylfulvene with a negative optical activity was tested for anti-tumor efficacy in an in vivo xenograft tumor study by Lantern Pharma. […] LP-184 was administered after (treatment model) the onset of disease. CHLA06 cells were implanted subcutaneously in non-obese diabetic severe combined immunodeficiency (NOD SCID) mice, formed xenograft tumors, and were thereafter treated either with vehicle control of 95% saline/5% ethanol (N=10) or 2 mg/kg or 4 mg/kg LP-184 (N=10) administered as intravenous injections.
LP-184 was delivered as 5 every other day doses over 2 cycles with a break of 5 days between cycles (IV/QaD×5on/5off×2), i.e., dosing occurred on days 0, 2, 4, 6. 8, 14, 16, 18, 20, and 22 of the study. LP-184 treatment was started 4 weeks after implantation when the tumors reached a group average volume of 150 mm^3. […] 2 out of 10 mice in the 4 mg/kg LP-184 treatment group were virtually tumor-free at study termination (tumor volume 0.5 mm^3). […] The results are highlighted in FIG. 2, wherein the Y axis denotes tumor volume in mm^3 and X axis denotes days post, treatment initiation. Since tumor growth was established before administration of the anti-cancer study drug, the defining feature of the treatment tumor model, anti-tumor treatment effects may thus be appropriately attributed to LP-184.
In CHLA06 xenograft models, tumors from the vehicle control treated mice appear vividly large (length range 1.5-2 cm) whereas tumors from 4 mg/kg LP-184 treated animals shrunk remarkably (length less than 0.5 cm) or have fully regressed.

[2] = system: CHLA-05 (group 1) ATRT cell line; experiment: LP-184 sensitivity in ATRT cell line CHLA-05; format: cell-based
Text: as §1

[3] = system: CHLA-06 (group 2A/B) ATRT cell line; experiment: LP-184 sensitivity in ATRT cell line CHLA-06; format: cell-based
Text: as §1

[4] = system: CHLA-02 (group 1) ATRT cell line; experiment: LP-184 sensitivity in ATRT cell line CHLA-02; format: cell-based
Text: as §1

Structure (SMILES): CC1=C(CN(O)C(N)=O)C2=C(C)C3(CC3)[C@@](C)(O)C(=O)C2=C1 [LP-184, HydroxyUreaMethyl Acylfulvene]
- IC50 [1]: < 0.2 µM
- mice virtually tumor-free at study termination (CHLA06 xenograft tumors; 4 mg/kg IV group, N=10): 2 out of 10
- tumor volume of virtually tumor-free mice (CHLA06 xenograft tumors; 4 mg/kg IV group, study termination): 0.5 mm^3
- tumor length (photographs at end of experiment) (CHLA06 xenograft tumors; 4 mg/kg LP-184 treated animals, vehicle 1.5-2 cm): less than 0.5 cm
- tumor regression, on average (CHLA06 xenograft tumors; LP-184 treated groups (2 or 4 mg/kg IV), end of study day 42): near complete tumor regression
- tumor regrowth after final dose (CHLA06 xenograft tumors; day 40, final dose on day 22): no tumor regrowth
- Tumor growth inhibition (CHLA06 xenograft tumors; relative to control, IV QoDx5 on/5 off x2, 2 mg/kg or 4 mg/kg): 112%
- IC50 [2]: 0.162 µM
- IC50 [3]: 0.0374 µM
- IC50 [4]: 1.77 µM

From patent publication US11844772B2, “Method for treating rhabdoid tumors” (Lantern Pharma Inc., priority 2020, dated 2023)
